The NIST ThermoML archive (doi:10.1016/j.fluid.2012.11.008)
Numbers after ± are expanded uncertainties.

assay: refractive index (Na D-line) (dimensionless); conditions: 293.15 K; 101.33 kPa; Liquid; Standard Abbe refractometry

Question: With `CCC(C)(C)OC` [2-methoxy-2-methylbutane] as the molecule, how does the refractive index read?
Answer: 1.3886 ± 0.0009

Question: With `COC(C)(C)C` [2-methoxy-2-methylpropane] as the molecule, how does the refractive index read?
Answer: 1.3689 ± 0.0007

Question: Which refractive index does the source give for `CCC=C(C)C` [2-methyl-2-pentene] here?
Answer: 1.4003 ± 0.0008

Question: Which refractive index does the source give for `CC#N` [acetonitrile] here?
Answer: 1.3439 ± 0.0007

Question: Which refractive index does the source give for `CCO` [ethanol] here?
Answer: 1.3618 ± 0.0007

Question: With `CCOC(C)=O` [ethyl acetate] as the molecule, how does the refractive index read?
Answer: 1.3724 ± 0.0007

Question: For `CCCCCCC` [heptane], which refractive index is on record?
Answer: 1.3878 ± 0.0007

Question: Which refractive index does the source give for `CCCCCC` [hexane] here?
Answer: 1.3752 ± 0.0007

Question: For `CO` [methanol], which refractive index is on record?
Answer: 1.3287 ± 0.0007
